Laboratory results taken from ChEMBL document CHEMBL1134970, “The TosMIC approach to 3-(oxazol-5-yl) indoles: application to the synthesis of indole-based IMPDH inhibitors” (Bioorg Med Chem Lett, 2002).

Tests used:
CCRF-CEM = experiment: Inhibitory concentration against T-cell proliferation response in a CEM cell line (BMS-337197,CEM); type: functional, cell-based; conditions: Homo sapiens
[1] = target: Inosine-5'-monophosphate dehydrogenase 2 (Homo sapiens, UniProt P12268); experiment: Inhibitory concentration against Inosine-5'-monophosphate dehydrogenase 2 was determined

IC50 (CCRF-CEM) [nM]	IC50 [1] [nM]	Structure (SMILES)
1000	7	CC(=O)OCC(=O)N(C)c1ccccc1-c1cnc(Nc2ccc3c(-c4cnco4)c[nH]c3c2)o1
> 10000	93	c1ccc(-c2cnc(Nc3ccc4c(-c5cnco5)c[nH]c4c3)o2)cc1
3000	35	CN(C(=O)CN1CCOCC1)c1ccccc1-c1cnc(Nc2ccc3c(-c4cnco4)c[nH]c3c2)o1
> 10000	38	Cc1ccccc1-c1cnc(Nc2ccc3c(-c4cnco4)c[nH]c3c2)o1
9700	35	Cc1ccccc1NC(=O)Nc1ccc2c(-c3cnco3)c[nH]c2c1
> 10000	205	Cc1ccc(-c2cnc(Nc3ccc4c(-c5cnco5)c[nH]c4c3)o2)cc1
1500	77	Cc1cccc(-c2cnc(Nc3ccc4c(-c5cnco5)c[nH]c4c3)o2)c1

Second part, the molecule before the results:

Structure (SMILES)	IC50 (CCRF-CEM) [nM]	IC50 [1] [nM]
Cc1cccc(NC(=O)Nc2ccc3c(-c4cnco4)cn(C)c3c2)c1		> 5000
Cc1ccc(NC(=O)Nc2ccc3c(-c4cnco4)cn(C)c3c2)cc1		> 5000
Cc1cccc(NC(=O)Nc2ccc3c(-c4cnco4)c[nH]c3c2)c1	> 10000	200
Cc1ccc(NC(=O)Nc2ccc3c(-c4cnco4)c[nH]c3c2)cc1	> 10000	11
O=C(Nc1ccccc1)Nc1ccc2c(-c3cnco3)c[nH]c2c1	> 10000	40
COc1cc(Nc2ncc(-c3ccccc3N(C)C(=O)CN3CCOCC3)o2)ccc1-c1cnco1	590	16
COc1cc(NC(=O)Nc2cccc(C)c2)ccc1-c1cnco1	1000	19
